Assay results taken from patent US11666565B2, “Treatment of cancer using a SMAD3 inhibitor” (The Chinese University of Hong Kong, priority 2012, dated 2023).

Assays:
melanoma (B16F10) = details: syngeneic mouse model, N=5
Description: (§1) Therapeutic effect of SIS3 was tested in subcutaneously invasive mouse model of lung carcinoma and melanoma. Lucifase-labeled highly invasive mouse lung carcinoma cells (LLC-luc) and melanoma cells (B16F10-luc) were injected subcutaneously into genetically-identical C57/BL6 mice at a dose of 2 million cells in 200 ul PBS per mouse. Cancer growth, invasion, and metastasis were monitored by measuring tumor size, weight, and bioluminescent imaging weekly. After cancer was established at one week after implantation, tumor-bearing mice received intraperitoneally SIS3 at dosages of 2.5, 5, and 10 ug/Kg body weight daily for 2 weeks. Control animals received daily saline, instead of SIS3, and a group of tumor-bearing mice without any treatment (used as untreated controls) were also monitored. Five mice per group were used in this study. Mice were weighed and tumor size or metastasis was examined by live bioluminescent imaging weekly. The survival rate was recorded. All mice were euthanized 2 weeks after treatment for further examination by histology and tumor volume and weight, invasion, and metastasis.

lung carcinoma (LLC) = system: lung carcinoma (LLC)
Description: as §1

Structure (SMILES): COc1cc2c(cc1OC)CN(C(=O)/C=C/c1c(-c3ccccc3)n(C)c3ncccc13)CC2 [SIS3, (6,7-Dimethoxy-2-((2E)-3-(1-methyl-2-phenyl-1H-pyrrolo[2,3-b]pyridin-3-yl-prop-2-enoyl))-1,2,3,4-tetrahydroisoquinoline)]
- cancer weight (melanoma (B16F10); subcutaneous melanoma B16F10, 3 million cells/mouse, FIG. 4): markedly lowering the cancer weight
- melanoma (B16F10) growth by live imaging analysis (melanoma (B16F10); SIS3 intraperitoneally daily, 2.5, 5 and 10 ug/Kg body weight, FIG. 3): inhibits melanoma (B16F10) growth in a dosage-dependent manner
- detectability of cancers (lung carcinoma (LLC); after 10 days treatment with SIS3 at doses of 5-10 μg/g body weight, N=5, FIG. 6): most of cancers become undetectable
- invasion into the cancer surrounding tissues and metastasis to lymph nodes, lung, liver, gastric and colon tissue (lung carcinoma (LLC); lung carcinoma (LLC) mouse model, FIGS. 3-7): suppressed
- cancer growth as demonstrated by tumor weight (lung carcinoma (LLC); subcutaneous LLC, 2 million cells/mouse, syngeneic mouse model, N=5, FIG. 7A): prevents cancer growth
